US8399674B2, “Quinolines” (Hoffman-La Roche Inc., priority 2007, dated 2013)

What was measured:
[1] = target: T1, recombinant human 5-HT5A receptor (Homo sapiens, UniProt P47898); assay: [3H]LSD radioligand binding assay, membranes of HEK-EBNA cells transiently expressing the receptor; details: [3H]LSD approx. 1 nM, 120 min room temperature, Ki from IC50 by Cheng-Prussoff equation, read-out: Ki (affinity towards the human 5-HT5A receptor)
T1 construct: expressed in transfected cells; host or cells: HEK-EBNA (Human Embryonic Kidney-EBNA) cells, transient transfection; membranes
T1 sequence (P47898 whole entry): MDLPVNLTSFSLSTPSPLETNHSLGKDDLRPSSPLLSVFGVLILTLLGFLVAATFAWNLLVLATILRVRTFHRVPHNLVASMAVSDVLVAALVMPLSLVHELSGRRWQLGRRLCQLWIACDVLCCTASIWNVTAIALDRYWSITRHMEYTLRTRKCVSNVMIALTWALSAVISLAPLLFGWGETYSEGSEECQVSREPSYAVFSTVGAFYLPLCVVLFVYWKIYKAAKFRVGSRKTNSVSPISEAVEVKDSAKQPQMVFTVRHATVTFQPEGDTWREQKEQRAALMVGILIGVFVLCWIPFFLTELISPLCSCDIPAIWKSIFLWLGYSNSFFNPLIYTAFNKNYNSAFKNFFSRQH
Procedure: A [^3H] LSD radioligand binding assay was used to determine the affinity of the compounds for the recombinant human 5-HT5A receptor, in membranes from transiently (cDNA) expressed 5-HT5A receptors in Human Embryonic Kidney-EBNA (HEK-EBNA) cells.
Assay buffer consisted of Tris (50 mM) buffer containing 1 mM EGTA, 10 mM MgCl2 (pH 7.4) and 10 μM pargyline. The binding assay was carried out in 96-well-plates in the presence of [^3H]LSD (approximately 1 nM), approximately 2 μg/well of membrane protein, and 0.5 mg of Ysi-poly-1-lysine SPA beads in a final volume of 200 μl of buffer. Non-specific binding was defined using methiothepin 2 μM. Compounds were tested at 10 concentrations. All assays were conducted in duplicate and repeated at least two times. Assay plates were incubated for 120 min at room temperature before centrifugation. Bound ligand was determined using a Packard Topcount scintillation counter. IC50 values were calculated using a non-linear curve fitting program and Ki values calculated using the Cheng-Prussoff equation.

Structure (SMILES) | Ki [1] [nM] | melting point [°C]
COc1ccc(NC(=O)Nc2ccc3nc(NCc4ccccc4OC)ccc3c2)cc1 [Example 79, 1-[2-(2-Methoxy-benzylamino)-quinolin-6-yl]-3-(4-methoxy-phenyl)-urea] | 30 | –
Cc1ccc(CNc2ccc3cc(NCc4ccccc4)ccc3n2)o1 [Example 29, N6-Benzyl-N2-(5-methyl-furan-2-ylmethyl)-quinoline-2,6-diamine] | 32 | –
COc1ccccc1CNc1ccc2cc(Nc3cccc(C)n3)ccc2n1 [Example 93, N2-(2-Methoxy-benzyl)-N6-(6-methyl-pyridin-2-yl)-quinoline-2,6-diamine] | – | 134
COc1ccccc1CNc1cc(-c2ccccc2C)c2cc(NCc3cccnc3)ccc2n1 [Example 32, N2-(2-Methoxy-benzyl)-N6-pyridin-3-ylmethyl-4-o-tolyl-quinoline-2,6-diamine] | 12 | –
COc1ccccc1CNC(=O)c1ccc2nc(NCc3ccccc3OC)ccc2c1 [Example 76, 2-(2-Methoxy-benzylamino)-quinoline-6-carboxylic acid 2-methoxy-benzylamide] | – | 217
COc1ccccc1CNc1ccc2cc(NCc3cccnc3)ccc2n1 [Example 6, N2-(2-Methoxy-benzyl)-N6-pyridin-3-ylmethyl-quinoline-2,6-diamine] | 27 | –
COc1cc(F)ccc1CNc1cc(-c2ccccc2)c2cc(NCc3ccccc3)ccc2n1 [Example 36, N-6-Benzyl-N-2-(4-fluoro-2-methoxy-benzyl)-4-phenyl-quinoline-2,6-diamine] | 42 | –
COc1ccccc1CNc1ccc2cc(NCc3ccccc3)ccc2n1 [Example 8, N6-Benzyl-N2-(2-methoxy-benzyl)-quinoline-2,6-diamine] | 22 | –
Cc1ccc(CNc2ccc3cc(NCc4cccnc4)ccc3n2)o1 [Example 25, N2-(5-Methyl-furan-2-ylmethyl)-N6-pyridin-3-ylmethyl-quinoline-2,6-diamine] | 22 | –
Cc1ccc(CNc2cc(N)c3cc(NCc4ccccc4)ccc3n2)o1 [Example 55, N6-Benzyl-N2-(5-methyl-furan-2-ylmethyl)-quinoline-2,4,6-triamine] | 22 | –
COc1ccccc1CNc1ccc2nc(NCc3ccc(C)o3)ccc2c1 [Example 27, N6-(2-Methoxy-benzyl)-N2-(5-methyl-furan-2-ylmethyl)-quinoline-2,6-diamine] | 30 | –
COc1ccccc1CNc1ccc2cc(/C=C/c3cccnc3)ccc2n1 [Example 14, (2-Methoxy-benzyl)-[6-((E)-2-pyridin-3-yl-vinyl)-quinolin-2-yl]-amine] | 60 | –
COc1cc(F)ccc1CNc1cc(N)c2cc(NCc3ccccc3)ccc2n1 [Example 44, N6-Benzyl-N2-(4-fluoro-2-methoxy-benzyl)-quinoline-2,4,6-triamine] | 40 | –
COc1ccccc1CNc1ccc2cc(CCc3cccnc3)ccc2n1 [Example 18, (2-Methoxy-benzyl)-[6-(2-pyridin-3-yl-ethyl)-quinolin-2-yl]-amine] | 87 | –
COc1cccc(CNc2ccc3cc(NCc4cccnc4)ccc3n2)c1 [Example 57, N2-(3-Methoxy-benzyl)-N6-pyridin-3-ylmethyl-quinoline-2,6-diamine] | 37 | –
COc1ccccc1CNc1ccc2cc(COc3ccccc3)ccc2n1 [Example 43, (2-Methoxy-benzyl)-(6-phenoxymethyl-quinolin-2-yl)-amine] | 73 | –
COc1cccc(CNc2ccc3nc(NCc4ccc(C)o4)ccc3c2)c1 [Example 28, N6-(3-Methoxy-benzyl)-N2-(5-methyl-furan-2-ylmethyl)-quinoline-2,6-diamine] | 44 | –
COc1ccccc1CNc1ccc2cc(Nc3cccc(CCO)c3)ccc2n1 [Example 103, 2-{3-[2-(2-Methoxy-benzylamino)-quinolin-6-ylamino]-phenyl}-ethanol] | 25 | –
COc1ccc(OC(=O)Nc2ccc3nc(NCc4ccccc4OC)ccc3c2)cc1 [Example 80, [2-(2-Methoxy-benzylamino)-quinolin-6-yl]-carbamic acid 4-methoxy-phenyl ester] | 87 | –
Cc1ccc(CNc2cc(N)c3cc(NCc4cccnc4)ccc3n2)o1 [Example 54, N2-(5-Methyl-furan-2-ylmethyl)-N6-pyridin-3-ylmethyl-quinoline-2,4,6-triamine] | 22 | –
c1ccc(OCCNc2ccc3cc(NCc4ccncc4)ccc3n2)cc1 [Example 7, N2-(2-Phenoxy-ethyl)-N6-pyridin-4-ylmethyl-quinoline-2,6-diamine] | 101 | –
c1ccc(OCCNc2ccc3cc(NCc4cccnc4)ccc3n2)cc1 [Example 1, N2-(2-Phenoxy-ethyl)-N6-pyridin-3-ylmethyl-quinoline-2,6-diamine] | 22 | –

Structure (SMILES) | Ki [1] [nM] | melting point [°C]
COc1ccccc1CNc1ccc2cc(NS(=O)(=O)Nc3ccc(F)cc3)ccc2n1 [Example 81, N-(4-fluorophenyl)-N′-{2-[(2-methoxybenzyl)amino]quinolin-6-yl}sulfamide] | 40 | –
COc1ccccc1CNc1ccc2cc(CCc3ccccc3)ccc2n1 [Example 4, (2-Methoxy-benzyl)-(6-phenethyl-quinolin-2-yl)-amine] | 104 | –
COc1ccccc1CNc1ccc2cc(NCc3ccccc3OC(F)(F)F)ccc2n1 [Example 17, N2-(2-Methoxy-benzyl)-N6-(2-trifluoromethoxy-benzyl)-quinoline-2,6-diamine] | 25 | –
COCCNc1cc(NCc2ccc(F)cc2OC)nc2ccc(NCc3ccccc3)cc12 [Example 42, N6-Benzyl-N2-(4-fluoro-2-methoxy-benzyl)-N4-(2-methoxy-ethyl)-quinoline-2,4,6-triamine] | 169 | –
COc1ccccc1CNc1ccc2nc(NCCOc3ccccc3)ccc2c1 [Example 9, N6-(2-Methoxy-benzyl)-N2-(2-phenoxy-ethyl)-quinoline-2,6-diamine] | 26 | –
COc1ccccc1CNc1cc(-c2ccccc2)c2cc(NCc3cccnc3)ccc2n1 [Example 13, N2-(2-Methoxy-benzyl)-4-phenyl-N6-pyridin-3-ylmethyl-quinoline-2,6-diamine] | 11 | –
c1cncc(CNc2ccc3nc(NCc4cccc5c4OCO5)ccc3c2)c1 [Example 73, N2-Benzo[1,3]dioxol-4-ylmethyl-N6-pyridin-3-ylmethyl-quinoline-2,6-diamine] | 27 | –
COc1cccc(CNc2ccc3nc(NCCOc4ccccc4)ccc3c2)c1 [Example 10, N6-(3-Methoxy-benzyl)-N2-(2-phenoxy-ethyl)-quinoline-2,6-diamine] | 42 | –
COc1cccc(CNc2ccc3nc(NCc4ccccc4OC)cc(-c4ccccc4)c3c2)c1 [Example 19, N6-(3-Methoxy-benzyl)-N2-(2-methoxy-benzyl)-4-phenyl-quinoline-2,6-diamine] | 22 | –
Cc1ccc(CNc2ccc3cc(CNc4cccnc4)ccc3n2)o1 [Example 49, (5-Methyl-furan-2-ylmethyl)-[6-(pyridin-3-ylaminomethyl)-quinolin-2-yl]-amine] | 128 | –
COc1ccccc1CNc1ccc2cc(NCCCn3ccnc3)ccc2n1 [Example 23, N6-(3-Imidazol-1-yl-propyl)-N2-(2-methoxy-benzyl)-quinoline-2,6-diamine] | 129 | –
COc1cc(F)ccc1CNc1cc(-c2ccccc2)c2cc(NCc3ccncc3)ccc2n1 [Example 37, N-2-(4-Fluoro-2-methoxy-benzyl)-4-phenyl-N-6-&-pyridin-4-ylmethyl-quinoline-2,6-diamine] | 40 | –
COc1cc(F)ccc1CNc1cc(-c2ccccc2)c2cc(NCc3cccnc3)ccc2n1 [Example 31, N-2-(4-Fluoro-2-methoxy-benzyl)-4-phenyl-N-6-pyridin-3-ylmethyl-quinoline-2,6-diamine] | 17 | –
COc1cccc(CNc2ccc3nc(NCc4ccccc4OC)ccc3c2)c1 [Example 16, N6-(3-Methoxy-benzyl)-N2-(2-methoxy-benzyl)-quinoline-2,6-diamine] | 17 | –
COc1ccccc1CNc1cc(-c2cc(F)ccc2F)c2cc(NCc3cccnc3)ccc2n1 [Example 35, 4-(2,5-Difluoro-phenyl)-N2-(2-methoxy-benzyl)-N6-pyridin-3-ylmethyl-quinoline-2,6-diamine] | 22 | –
COc1ccccc1CNc1cc(N)c2cc(NCc3cccnc3)ccc2n1 [Example 51, N2-(2-Methoxy-benzyl)-N6-pyridin-3-ylmethyl-quinoline-2,4,6-triamine] | 15 | –
COc1ccccc1CNc1ccc2nc(NCc3ccccc3OC)cc(-c3ccccc3)c2c1 [Example 20, N2,N6-Bis-(2-methoxy-benzyl)-4-phenyl-quinoline-2,6-diamine] | 30 | –
COc1ccccc1CNc1ccc2nc(NCc3ccccc3OC)ccc2c1 [Example 15, N2,N6-Bis-(2-methoxy-benzyl)-quinoline-2,6-diamine] | 17 | –
COc1ccccc1CNc1cc(N)c2cc(NCc3ccccc3)ccc2n1 [Example 47, N6-Benzyl-N2-(2-methoxy-benzyl)-quinoline-2,4,6-triamine] | 30 | –
COc1cccc(-c2cc(NCc3ccccc3OC)nc3ccc(NCc4cccnc4)cc23)c1 [Example 33, N-2-(2-Methoxy-benzyl)-4-(3-methoxy-phenyl)-N-6-pyridin-3-ylmethyl-quinoline-2,6-diamine] | 50 | –
COc1cc(F)ccc1CNc1cc(-c2ccccc2C)c2cc(NCc3ccccc3)ccc2n1 [Example 38, N-6-2-Benzyl-N-2-(4-fluoro-2-methoxy-benzyl)-4-o-tolyl-quinoline-2,6-diamine] | 41 | –
